Where two headings read alike, the source gives them in different places.
Key:
TNF = assay: PBMC assay: TNF cytokine levels in LPS-stimulated human PBMCs (MSD); type: cell-based; conditions: 100 ng/ml LPS for 6 hrs, TNF in supernatant via MSD
Summary of the method: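 Cryopreserved healthy-donor human PBMCs (7.5×10^4 cells/well, RPMI + 10% FBS) were preincubated with 1:3 serially diluted compounds for 30 min at 37 °C. They were then stimulated with 100 ng/ml LPS (final) for 6 h. Supernatant TNF was measured by MSD, and EC50 values were derived.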

NLRP3 inflammasome = assay: PBMC assay: IL-1β in LPS-stimulated human PBMCs (MSD); type: cell-based; conditions: read-out: IL1β IC50
Summary of the method: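 Human PBMCs from healthy donors, Ficoll-isolated and cryopreserved, were plated at 7.5×10^4 cells/well in RPMI/10% FBS for 30 min at 37 °C. Cells were then stimulated with 100 ng/ml LPS (final) for 6 h. IL-1β and TNF in supernatants were quantified by MSD immunoassay.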

[1] = human PBMCs, 100 ng/ml LPS for 6 hrs, IL-1β in supernatant via MSD

| Structure (SMILES) | EC50 (TNF) [µM] | IC50 (NLRP3 inflammasome; [1]) [µM] | IC50 (NLRP3 inflammasome; Homo sapiens, 6 h) [µM] |
| --- | --- | --- | --- |
| CCCCc1nn(CC(=O)N[C@H]2C[C@@](C)(O)C2)c(=O)c2cc(C3CC3)nn12 [Final Cpd 196] | > 10 | > 10 |  |
| Cc1cc2c(=O)n(CC(=O)Nc3ccncn3)nc(C(C)C)n2n1 [Final Cpd 17] | > 10 | 1.1 |  |
| CCc1cc2c(=O)n(CC(=O)N[C@H]3C[C@@](C)(O)C3)nc(C(C)C)n2n1 [Final Cpd 140] | > 10 | 0.21 |  |
| CC(C)c1nn(CC(=O)Nc2ccncn2)c(=O)c2cc(N3CCC3)nn12 [Final Cpd 21] | > 10 | 2.75 |  |
| CC(C)c1nn(CC(=O)Nc2ccn3ncnc3c2)c(=O)c2cc(C3CC3)nn12 [Final Cpd 103] | > 10 | 0.56 |  |
| CCNc1cc2c(=O)n(CC(=O)Nc3ccc4nncn4c3)nc(C(C)C)n2n1 [Final Cpd 75] | 7.04 | 0.024 |  |
| CC(C)c1nn(CC(=O)Nc2ccc3nnnn3n2)c(=O)c2cc(C3CC3)nn12 [Final Cpd 169] | > 10 | 0.16 |  |
| COCCNc1nn(CC(=O)Nc2ccc3nncn3c2)c(=O)c2cc(C3CC3)nn12 [Final Cpd 39] | > 10 | 2.49 |  |
| Cc1nnc2ccc(NC(=O)Cn3nc(C(C)C)n4nc(C5CC5)cc4c3=O)nn12 [Final Cpd 171] | > 10 | 0.22 |  |
| CC(C)c1nn(CC(=O)Nc2ccc3nncn3c2)c(=O)c2c(N)c(C3CCC3)nn12 [Final Cpd 182] | > 10 | 0.1 |  |
| Cc1ncc(NC(=O)Cn2nc(C(C)C)n3nc(C4CC4)cc3c2=O)cn1 [Final Cpd 131] | > 10 | 3.57 |  |
| CC(C)c1nn(CC(=O)N[C@H]2C[C@@](C)(O)C2)c(=O)c2cc(C(O)C(F)(F)F)nn12 (stereo partly shown) [Final Cpd 158] | > 10 | > 10 |  |
| CC(C)c1nn(CC(=O)Nc2ccc3nncn3c2)c(=O)c2cc(C(O)C(F)(F)F)nn12 (stereo not shown) [Final Cpd 157] | > 10 | > 10 |  |
| CCc1nn(CC(=O)NC2CC2)c(=O)c2ccnn12 [Final Cpd 76, N-cyclopropyl-2-(7-ethyl-4-oxopyrazolo[1,5-d][1,2,4]triazin-5(4H)-yl)acetamide] | > 10 | > 10 |  |
| CC(C)c1nn(CC(=O)Nc2cncc(Cl)c2)c(=O)c2cc(C3CC3)nn12 [Final Cpd 117] | > 10 | 1.41 |  |
| Cc1cc(NC(=O)Cn2nc(C(C)C)n3nc(C4CC4)cc3c2=O)nc(C)n1 [Final Cpd 137] | > 10 | 1.23 |  |
| CC(C)c1nn(CC(=O)N[C@H]2C[C@@](C)(O)C2)c(=O)c2cc(CC(F)(F)F)nn12 [Final Cpd 160] | > 10 | > 10 |  |
| Cc1cc(NC(=O)Cn2nc(C(C)C)n3nc(C4CC4)cc3c2=O)c(C)cn1 [Final Cpd 104] | > 10 | 1.62 |  |
| CC(C)c1nn(CC(=O)Nc2ccc3c(C#N)ncn3c2)c(=O)c2cc(C3CC3)nn12 [Final Cpd 108] | > 10 | 0.54 |  |
| COCCN(C)c1nn(CC(=O)Nc2ccc3nncn3c2)c(=O)c2cc(C3CC3)nn12 [Final Cpd 38] | > 10 | > 10 |  |
| CCc1nn(CC(=O)NC2CCCC2)c(=O)c2ccnn12 [Final Cpd 78] | > 10 | > 10 |  |
| COC(=O)C12CC(NC(=O)Cn3nc(C)n4nc(C5CC5)cc4c3=O)(C1)C2 [Final Cpd 61] | > 10 | 0.064 |  |
| CC(C)c1nn(CC(=O)Nc2cncnc2)c(=O)c2cc(C3CC3)nn12 [Final Cpd 115] | > 10 | 1.72 |  |
| CC(C)c1nn(CC(=O)Nc2ccncn2)c(=O)c2cc(I)nn12 [Final Cpd 2, 2-(2-iodo-7-isopropyl-4-oxo-pyrazolo[1,5-d][1,2,4]triazinyl)-N-pyrimidin-4-yl-acetamide] | > 10 | < 0.12 |  |
| Cc1nn(CC(=O)N[C@@H]2COC[C@H]2N2CCCCC2)c(=O)c2cc(C3CC3)nn12 [Final Cpd 54] | > 10 |  | > 10 |

| Structure (SMILES) | EC50 (TNF) [µM] | IC50 (NLRP3 inflammasome; [1]) [µM] | IC50 (NLRP3 inflammasome; Homo sapiens, 6 h) [µM] |
| --- | --- | --- | --- |
| CC(C)c1nn(CC(=O)Nc2ccc3ncnn3c2)c(=O)c2cc(C3CC3)nn12 [Final Cpd 82] | > 10 | 0.28 |  |
| CNc1cc2c(=O)n(CC(=O)Nc3ccncn3)nc(C(C)C)n2n1 [Final Cpd 18, 2-[7-isopropyl-2-(methylamino)-4-oxo-pyrazolo[1,5-d] [1,2,4]triazin-5-yl]—N-pyrimidin-4-yl-acetamide] | > 10 | 0.16 |  |
| CC(C)c1nn(CC(=O)Nc2ccc(I)nn2)c(=O)c2cc(C3CC3)nn12 [Final Cpd 173] | > 10 | > 10 |  |
| CC(C)c1nn(CC(=O)N[C@@H]2CCOC[C@@H]2O)c(=O)c2cc(C3CC3)nn12 [Final Cpd 33] | > 10 | 1.56 |  |
| Cc1ncccc1NC(=O)Cn1nc(C(C)C)n2nc(C3CC3)cc2c1=O [Final Cpd 113] | > 10 | 0.85 |  |
| CC(C)c1nn(CC(=O)Nc2ccc3cncn3c2)c(=O)c2cc(C3CC3)nn12 [Final Cpd 87] | 6.17 | 0.063 |  |
| COc1cncc(NC(=O)Cn2nc(C(C)C)n3nc(C4CC4)cc3c2=O)c1 [Final Cpd 121] | > 10 | 3.06 |  |
| CC(C)c1nn(CC(=O)Nc2nccc(C(F)(F)F)n2)c(=O)c2cc(C3CC3)nn12 [Final Cpd 98] | > 10 | > 10 |  |
| CC(C)c1nn(CC(=O)Nc2ccc3nc(C#N)cn3c2)c(=O)c2cc(C3CC3)nn12 [Final Cpd 99] | > 10 | 0.49 |  |
| CC(C)c1nn(CC(=O)Nc2ccc3nccn3c2)c(=O)c2cc(C3CC3)nn12 [Final Cpd 91] | > 10 | 0.31 |  |
| Cc1nn(CC(=O)NCc2ccc(F)cc2)c(=O)c2cc(C3CC3)nn12 [Final Cpd 47] | > 10 | > 10 |  |
| CC(C)c1nn(CC(=O)N[C@H]2C[C@@](C)(O)C2)c(=O)c2cc(C3CC3)nn12 [Final Cpd 8] | > 10 | 0.24 |  |
| C[C@]1(O)C[C@@H](NC(=O)Cn2nc(CCCC(F)(F)F)n3nc(C4CC4)cc3c2=O)C1 [Final Cpd 195, 2-(2-cyclopropyl-4-oxo-7-(4,4,4-trifluorobutyl)pyrazolo[1,5-d][1,2,4]triazin-5(4H)-yl)-N-((ls,3s)-3-hydroxy-3-methylcyclobutyl)acetamide] | > 10 | > 10 |  |
| CCCc1cc2c(=O)n(CC(=O)Nc3ccnnc3)nc(C(C)C)n2n1 [Final Cpd 145] | > 10 | 0.51 |  |
| Cc1noc(C)c1[C@@H](c1ccccc1)N1CC(NC(=O)Cn2nc(C)n3nc(C4CC4)cc3c2=O)C1 [Final Cpd 58] | > 10 | 9.41 |  |
| CC(C)c1nn(CC(=O)Nc2ccc3nc(C(F)F)cn3c2)c(=O)c2cc(C3CC3)nn12 [Final Cpd 105] | > 10 | 0.18 |  |
| CC(C)c1nn(CC(=O)N[C@H]2C[C@@](C)(O)C2)c(=O)c2cc(C(C)(C)C)nn12 [Final Cpd 71] | > 10 | 0.54 |  |
| CCNc1cc2c(=O)n(CC(=O)Nc3ccc(=O)n(C)n3)nc(C(C)C)n2n1 [Final Cpd 74] | > 10 | 0.22 |  |
| CC(C)c1nn(CC(=O)N[C@H]2CCC(=O)N(CC3CC3)C2)c(=O)c2cc(C3CC3)nn12 [Final Cpd 27] | > 10 | 0.99 |  |
| CCc1nn(CC(=O)Nc2ccncn2)c(=O)c2cc(NC(C)=O)nn12 [Final Cpd 184, 2-(2-acetamido-7-ethyl-4-oxopyrazolo[1,5-d][1,2,4]triazin-5(4H)-yl)-N-(pyrimidin-4-yl)acetamide] | > 10 | > 10 |  |
| Cc1nn(CC(=O)N[C@H]2CCN(Cc3ccncc3)C2)c(=O)c2cc(C3CC3)nn12 [Final Cpd 59] | > 10 | > 10 |  |
| CC(C)c1cc2c(=O)n(CC(=O)Nc3ccncn3)nc(C(C)C)n2n1 [Final Cpd 3] | > 10 | 0.28 |  |
| CC(C)c1nn(CC(=O)Nc2ccc(=O)n(C)c2)c(=O)c2cc(C3CC3)nn12 [Final Cpd 28] | > 10 | 0.38 |  |
| CCc1nn(CC(=O)Nc2ccccc2OC)c(=O)c2ccnn12 [Final Cpd 77] | > 10 | > 10 |  |
| COc1ncccc1NC(=O)Cn1nc(C(C)C)n2nc(C3CC3)cc2c1=O [Final Cpd 106] | > 10 | 0.71 |  |

Reference: US20230203044A1, “PYRAZOLO[1,5-D][1,2,4]TRIAZINE-5(4H)-ACETAMIDES AS INHIBITORS OF THE NLRP3 INFLAMMASOME” (JANSSEN PHARMACEUTICA NV, priority 2020, published 2023)
